Measurements: patent publication US20220324865A1 (Bayer Aktiengesellschaft, priority 2018, published 2022)

biological target: T1, human EP3 receptor (Homo sapiens, UniProt P43115); test: Cellular in vitro assay for determining EP3 receptor activity (human EP3 cell line, sulprostone-stimulated calcium luminescence); assay type: cell-based; details: CHO cells expressing human EP3 and mitochondrial Clytin; antagonist mode, sulprostone at EC50; read-out: EP3 CHO mtCLY ANTAG IC50
T1 construct: expressed in transfected cells; host or cells: CHO K1 (Chinese Hamster Ovary), stably co-transfected with Galpha16 and mitochondrial clytin
T1 sequence (P43115 1-390): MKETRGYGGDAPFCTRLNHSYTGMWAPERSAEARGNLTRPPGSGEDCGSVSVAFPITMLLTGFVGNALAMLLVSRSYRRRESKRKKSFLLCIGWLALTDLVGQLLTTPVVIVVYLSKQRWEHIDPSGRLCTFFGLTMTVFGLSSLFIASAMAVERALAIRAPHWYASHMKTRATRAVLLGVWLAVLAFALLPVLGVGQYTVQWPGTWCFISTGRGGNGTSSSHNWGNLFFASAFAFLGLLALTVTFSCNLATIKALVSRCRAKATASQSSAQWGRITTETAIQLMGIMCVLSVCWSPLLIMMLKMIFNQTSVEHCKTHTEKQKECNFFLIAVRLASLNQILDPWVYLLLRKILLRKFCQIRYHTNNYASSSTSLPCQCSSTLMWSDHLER
How it was run: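 Antagonist activity was measured as inhibition of the luminescent calcium signal elicited by EC50 sulprostone, following 10 min compound pretreatment. The cell line was recombinant CHO K1 co-expressing human EP3, Gα16 and the photoprotein Clytin, reconstituted with coelenterazine.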

SMILES | IC50
Cc1cnn(C(CNC(=O)c2cc3c(=O)[nH]c(-c4ccc5ccccc5c4)cn3n2)C(C)C)c1 (stereo not shown) [Example 2-12, N-[3-Methyl-2-(4-methyl-1H-pyrazol-1-yl)butyl]-6-(2-naphthyl)-4-oxo-4,5-dihydropyrazolo[1,5-a]pyrazine-2-carboxamide] | 4.65 nM
COCc1c(C(=O)N[C@H](C)c2ccc(OC)nc2)nn2cc(-c3ccc4ccccc4c3)[nH]c(=O)c12 [Example 1-22, 3-(Methoxymethyl)-N-[(1R)-1-(6-methoxypyridin-3-yl)ethyl]-6-(naphthalen-2-yl)-4-oxo-4,5-dihydropyrazolo[1,5-a]pyrazine-2-carboxamide] | 0.37 nM
Cc1nn(C)cc1CNC(=O)c1nn2c(C)c(-c3ccc4ccccc4c3)[nH]c(=O)c2c1C [Example 3-9, N-[(1,3-Dimethyl-1H-pyrazol-4-yl)methyl]-3,7-dimethyl-6-(naphthalen-2-yl)-4-oxo-4,5-dihydropyrazolo[1,5-a]pyrazine-2-carboxamide] | 1.95 nM
Cc1cccc2ncc(-c3cn4nc(C(=O)N[C@H](CCO)c5ccccc5)c(C(C)C)c4c(=O)[nH]3)cc12 [Example 1-88, N-[(1R)-3-Hydroxy-1-phenylpropyl]-6-(5-methylquinolin-3-yl)-4-oxo-3-(propan-2-yl)-4,5-dihydropyrazolo[1,5-a]pyrazine-2-carboxamide] | 1.35 nM
CC[C@@H](NC(=O)c1nn2cc(-c3ccc4ccccc4c3)[nH]c(=O)c2c1C#N)c1ccccc1 [Example 3-61, 3-Cyano-6-(naphthalen-2-yl)-4-oxo-N-[(1R)-1-phenylpropyl]-4,5-dihydropyrazolo[1,5-a]pyrazine-2-carboxamide] | 2 nM
O=C(N[C@H](CN1CC(F)C1)C1CC1)c1nn2cc(-c3ccc4ccccc4c3)[nH]c(=O)c2c1C(F)(F)F [6-513] | 7.1 nM
COc1cc(-c2cn3nc(C(=O)NC4(c5ccc(F)cc5)CN(C)C4)c(C4CC4)c3c(=O)[nH]2)ccc1Cl [6-485] | 3.4 nM
COc1ccc(C(NC(=O)c2nn3c(C)c(-c4ccc5ccccc5c4)[nH]c(=O)c3c2C)C2CC2)cc1 (stereo not shown) [Example 3-35, N-[Cyclopropyl(4-methoxyphenyl)methyl]-3,7-dimethyl-6-(2-naphthyl)-4-oxo-5H-pyrazolo[1,5-a]pyrazine-2-carboxamide] | 5.05 nM
O=C(N[C@H]1CCc2ccccc21)c1cc2c(=O)[nH]c(-c3ccc4ccccc4c3)cn2n1 [Example 2-42, N-[(7S)-2,3-Dihydro-1H-inden-1-yl]-6-(2-naphthyl)-4-oxo-4,5-dihydropyrazolo[1,5-a]pyrazine-2-carboxamide] | 7.27 nM
CC(NC(=O)c1cc2c(=O)[nH]c(-c3ccc4ccccc4c3)cn2n1)c1ccc(C(C)(C)C)cc1 (stereo not shown) [Example 2-40, N-[1-(4-tert.-Butylphenyl)ethyl]-6-(2-naphthyl)-4-oxo-4,5-dihydropyrazolo[1,5-a]pyrazine-2-carboxamide] | 3.15 nM
CC(NC(=O)c1cc2c(=O)[nH]c(-c3ccc4ccccc4c3)cn2n1)c1ccc2c(c1)OCCO2 (stereo not shown) [Example 2-35, N-[1-(2,3-Dihydro-1,4-benzodioxin-6-yl)ethyl]-6-(2-naphthyl)-4-oxo-4,5-dihydropyrazolo[1,5-a]pyrazine-2-carboxamide] | 5.3 nM
COc1ccc(C(CCO)NC(=O)c2cc3c(=O)[nH]c(-c4ccc(C)c(C)c4)cn3n2)cc1 (racemic) [Example 1-11, rac-6-(3,4-Dimethylphenyl)-N-[3-hydroxy-1-(4-methoxyphenyl)propyl]-4-oxo-5H-pyrazolo[1,5-a]-pyrazine-2-carboxamide] | 2.15 nM
CC(C)(C)OC(=O)N1CC(C(NC(=O)c2cc3c(=O)[nH]c(-c4ccc5ccccc5c4)cn3n2)c2ccc(F)cc2)C1 (racemic) [Example 1-157, tert-Butyl 3-[(4-fluorophenyl)-[[6-(2-naphthyl)-4-oxo-5H-pyrazolo[1,5-a]pyrazine-2-carbonyl]amino]-methyl]azetidine-1-carboxylate (Racemate)] | 2.2 nM
